The experiment concerns the target IRAK4 (Homo sapiens (Human), UniProt Q9NWZ3). The experiment in a line: IRAK4 Kinase Assay (IMAP fluorescence polarization). Type of experiment: biochemical. The settings on record: GST tagged IRAK4, 100 μM ATP, 30 minutes at 25° C., IMAP FP. The source says: Other assays are known in the literature and could be readily performed by those of skill in the art.
The reaction is initiated by the addition of ATP.

Counter-ions that a name gives are not always drawn.

IRAK4, sequence (Q9NWZ3 whole entry): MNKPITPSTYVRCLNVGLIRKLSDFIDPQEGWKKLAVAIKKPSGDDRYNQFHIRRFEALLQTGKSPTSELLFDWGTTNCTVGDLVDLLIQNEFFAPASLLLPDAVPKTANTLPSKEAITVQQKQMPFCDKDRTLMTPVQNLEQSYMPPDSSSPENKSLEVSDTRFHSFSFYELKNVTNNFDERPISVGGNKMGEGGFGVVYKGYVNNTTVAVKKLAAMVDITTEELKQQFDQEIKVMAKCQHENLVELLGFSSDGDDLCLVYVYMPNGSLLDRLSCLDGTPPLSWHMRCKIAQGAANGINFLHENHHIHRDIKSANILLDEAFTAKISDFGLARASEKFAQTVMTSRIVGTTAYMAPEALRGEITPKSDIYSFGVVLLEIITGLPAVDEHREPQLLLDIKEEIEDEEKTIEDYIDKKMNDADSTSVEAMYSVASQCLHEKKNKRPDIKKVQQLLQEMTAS

Compound `NC(=O)c1nn(CCO)cc1NC(=O)c1ccc2cnc(N[C@@H]3CCCC[C@@H]3N)nn12` [Example 63, 2-{[(1R,2S)-2-aminocyclohexyl]amino}-N-[3-carbamoyl-1-(2-hydroxyethyl)-1H-pyrazol-4-yl]pyrrolo[2,1-f][1,2,4]triazine-7-carboxamide trifluoroacetate] returned a concentration for half-maximal inhibition (IC50) of 3 nM.

With `NCCNc1ccn2ncc(C(=O)Nc3cn(-c4cccnc4)nc3C(N)=O)c2n1` [Example 11, 5-[(2-aminoethyl)amino]-N-(3-carbamoyl-1-pyridin-3-yl-1H-pyrazol-4-yl)pyrazolo[1,5-a]pyrimidine-3-carboxamide], the half-maximal inhibitory concentration (IC50) was found to be 0.7 nM.

In the case of `COCCn1cc(NC(=O)c2cnn3ccc(N[C@@H]4CCCC[C@@H]4N)nc23)c(C(N)=O)n1` [Example 24, 5-{[(1R,2S)-2-aminocyclohexyl]amino}-N-[3-carbamoyl-1-(2-methoxyethyl)-1H-pyrazol-4-yl]pyrazolo[1,5-a]pyrimidine-3-carboxamide], half-maximal inhibition (IC50) required 3 nM.

`NC(=O)c1ncccc1NC(=O)c1cnn2cccnc12` [Example 41, N-(2-Carbamoylpyridin-3-yl)pyrazolo[1,5-a]pyrimidine-3-carboxamide]: the IC50 came out at 4400 nM.

The compound `NC(=O)Cn1cc(NC(=O)c2cnn3ccc(N[C@@H]4CCCC[C@@H]4N)nc23)c(C(N)=O)n1` [Example 32, 5-{[(1R,2S)-2-Aminocyclohexyl]amino}-N-[1-(2-amino-2-oxoethyl)-3-carbamoyl-1H-pyrazol-4-yl]pyrazolo[1,5-a]pyrimidine-3-carboxamide] returned a concentration for half-maximal inhibition (IC50) of 3 nM.

For the compound `Cn1cc(NC(=O)c2cnn3ccc(N4CCNC(=O)C4)nc23)c(C(N)=O)n1` [Example 38, N-(3-Carbamoyl-1-methyl-1H-pyrazol-4-yl)-5-(3-oxopiperazin-1-yl)pyrazolo[1,5-a]pyrimidine-3-carboxamide], the half-inhibitory concentration (IC50) came to 400 nM.

In turn, `Cn1cc(NC(=O)c2cnn3ccc(NC4CCCCCC4N)nc23)c(C(N)=O)n1` (stereo not shown) [Example 13, 5-[(2-aminocycloheptyl)amino]-N-(3-carbamoyl-1-methyl-1H-pyrazol-4-yl)pyrazolo[1,5-a]pyrimidine-3-carboxamide] yielded a concentration for half-maximal inhibition (IC50) of 2 nM.

Take `Cn1cc(NC(=O)c2cnn3ccc(NC4CCCCC4O)nc23)c(C(N)=O)n1` (stereo not shown) [Example 27, N-(3-carbamoyl-1-methyl-1H-pyrazol-4-yl)-5-[(2-hydroxycyclohexyl)amino]pyrazolo[1,5-a]pyrimidine-3-carboxamide]: half-maximal inhibition (IC50) required 210 nM.

Turning to `CC(C)n1cc(NC(=O)c2cnn3ccc(N[C@@H]4CCCC[C@@H]4N)nc23)c(C(N)=O)n1` [Example 22, 5-{[(1R,2S)-2-aminocyclohexyl]amino}-N-[3-carbamoyl-1-(1-methylethyl)-1H-pyrazol-4-yl]pyrazolo[1,5-a]pyrimidine-3-carboxamide trifluoroacetate], the 50% inhibitory concentration (IC50) is 1 nM.

The compound `Cn1cc(NC(=O)c2cnn3ccc(N4CCNCC4)nc23)c(C(N)=O)n1` [Example 31, N-(3-carbamoyl-1-methyl-1H-pyrazol-4-yl)-5-piperazin-1-ylpyrazolo[1,5-a]pyrimidine-3-carboxamide hydrochloride] had an IC50 of 37 nM.

`NC(=O)c1nn(C2CCNCC2)cc1NC(=O)c1cnn2cccnc12` [Example 47, N-(3-carbamoyl-1-piperidin-4-yl-1H-pyrazol-4-yl)pyrazolo[1,5-a]pyrimidine-3-carboxamide hydrochloride] came in with an IC50 of 470 nM.

`NC(=O)c1nn(-c2ccccn2)cc1NC(=O)c1cnn2ccc(N3CCNCC3)nc12` [Example 37, N-(3-Carbamoyl-1-pyridin-2-yl-1H-pyrazol-4-yl)-5-piperazin-1-ylpyrazolo[1,5-a]pyrimidine-3-carboxamide] registered an IC50 of 1000 nM.

Turning to `NC(=O)c1nn(-c2cccnc2)cc1NC(=O)c1cnn2ccc(N[C@H]3CCCC[C@H]3N)nc12` (relative stereo) [Example 6, 5-{[cis-2-aminocyclohexyl]amino}-N-(3-carbamoyl-1-pyridin-3-yl-1H-pyrazol-4-yl)pyrazolo[1,5-a]pyrimidine-3-carboxamide], the IC50 stood at 0.8 nM.

The IC50 is the concentration at which inhibition is half-maximal. Read a high IC50 as weaker potency in that assay.
